Consider 2 compounds from patent US20240115546A1, “AGENT FOR PREVENTING OR AMELIORATING PRURITUS” (KAO CORPORATION, priority 2021, published 2024).

The subject of test [1] is AD model mice (NC/Nga, mite allergen-induced). As to the kind of experiment: Scratching behavior in AD model mice given C3a receptor antagonist. The note with it: 200 μL subcutaneous, Compound 1 0.5 mg/mL, Compound 2 0.05 mg/mL, three times a week; measured for 3 hours after last administration; vs solvent alone; FIG. 7. It is filed as in vivo, mouse. The method, then: Seven-week-old female NC/Nga mice were used.
Preparation of AD model mice: The back of the neck was shaved, and 100 mg of an ointment containing mite allergen: Biostir AD (Biostir Inc.) was applied to the back of the neck and auricular region under isoflurane anesthesia for initial sensitization. Four days after the first application of the ointment containing mite allergen, 150 μL of 4% (w/v) SDS solution and 100 mg of ointment containing mite allergen were applied to the back of the neck and auricular region under isoflurane anesthesia. Thereafter, the same procedure was performed four times at a frequency of once every 3 to 4 days to induce AD-like dermatitis.
Compound 1 or Compound 2, whose C3a receptor antagonism was confirmed in Example 4 above, was used as a C3a receptor antagonist. Compound 1 or Compound 2 was dissolved in saline containing 20% polyethylene glycol 400, of which 200 μL was administered subcutaneously to the back of the neck. The control group was administered with the same amount of only the above solvent. The concentration of the C3a receptor antagonist solution was set at 0.5 mg/mL for Compound 1 and 0.05 mg/mL for Compound 2. […]
Four days after the last application of the ointment containing mite allergen, the scratching behavior was measured for 3 hours after the last administration of the sample. […]

The target of another test is T1, C3a receptor (Homo sapiens, UniProt Q16581).
T1 sequence (Q16581 1-482): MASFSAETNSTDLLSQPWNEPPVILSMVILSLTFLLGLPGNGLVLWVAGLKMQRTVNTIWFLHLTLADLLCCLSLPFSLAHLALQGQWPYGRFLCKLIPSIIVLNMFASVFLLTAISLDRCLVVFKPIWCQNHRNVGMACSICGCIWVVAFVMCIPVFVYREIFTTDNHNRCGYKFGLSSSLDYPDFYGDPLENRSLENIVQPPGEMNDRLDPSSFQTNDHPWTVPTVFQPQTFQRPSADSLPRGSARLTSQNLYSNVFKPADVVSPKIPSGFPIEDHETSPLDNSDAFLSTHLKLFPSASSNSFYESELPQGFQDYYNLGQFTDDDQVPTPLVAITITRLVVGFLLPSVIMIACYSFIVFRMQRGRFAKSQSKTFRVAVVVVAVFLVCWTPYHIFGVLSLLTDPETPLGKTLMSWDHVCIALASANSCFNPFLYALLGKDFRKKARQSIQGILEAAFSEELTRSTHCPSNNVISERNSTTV
As to the kind of experiment: Ca2+-flux assay for C3a receptor antagonism in transfected HEK293 cells. It is filed as cell-based. The note with it: antagonist 10 nM, mouse TLQP-21 1 μM; HEK293 transfected with C3a receptor and GNA16; Fluo-4; vs control; FIG. 6.

Test [2] relates to AEW model mice (C57BL/6J). As to the kind of experiment: Scratching behavior in AEW model mice given C3a receptor antagonist. It is filed as in vivo, mouse. The note with it: 200 μL subcutaneous, Compound 1 0.5 mg/mL, Compound 2 0.05 mg/mL, once daily for 8 days; measured for 3 hours after last administration; vs solvent alone; FIG. 8. The text has this:
The animals used were male C57BL/6J mice.
Preparation of AEW model: The back of the neck was shaved, and absorbent cotton soaked with a 1:1 (v/v) mixture of acetone and diethyl ether was applied and allowed to stand for 15 seconds. Immediately thereafter, absorbent cotton soaked with water was applied for 30 seconds. This treatment was repeated twice/day (morning and evening) for 7 days.
Compound 1 or Compound 2, whose C3a receptor antagonism was confirmed in Example 4 above, was used as a C3a receptor antagonist. Compound 1 or Compound 2 was dissolved in saline containing 20% polyethylene glycol 400, of which 200 μL was administered subcutaneously to the back of the neck. The control group was administered with the same amount of only the above solvent. The concentration of the C3a receptor antagonist solution was set at 0.5 mg/mL for Compound 1 and 0.05 mg/mL for Compound 2. Sample administration started after the first AEW treatment and was performed at a frequency of once daily for 8 days.
Sixteen hours after the last AEW treatment, the scratching behavior was measured for 3 hours after the last administration of the sample. MicroAct (Neuroscience) was used to measure the scratching behavior.

Regarding `N=C(N)NCCC[C@H](NC(=O)c1ccc(C(c2ccccc2)c2ccccc2)s1)C(=O)O` [Compound 1, L-arginine, N2-[[5-(diphenylmethyl)-2-thienyl]carbonyl]], the Scratching behavior result in test [1] and in test [2] was “significant decrease” in each case. Besides, on C3a receptor, the “Fluorescence intensity due to C3a receptor stimulation by TLQP-21 (Ca2+ influx, integrated over 3 min)” value is listed as “greatly suppressed”.
`Cc1cc(C(c2ccc(Cl)cc2)c2ccc(Cl)cc2)sc1C(=O)N[C@@H](CCCNC(=N)N)C(=O)O` [Compound 2, L-arginine, N2-[[5-[bis(4-chlorophenyl)methyl]-3-methyl-2-thienyl]carbonyl]]: the Scratching behavior entry in test [1] and in test [2] was “significant decrease” each time. Moreover, on C3a receptor, the “Fluorescence intensity due to C3a receptor stimulation by TLQP-21 (Ca2+ influx, integrated over 3 min)” value is given as “greatly suppressed”.
